Laboratory results published in patent US10413535B2, “Pharmaceutical compositions comprising an integrin ALPHA4 antagonist for use in treating ocular inflammatory conditions” (AXEROVISION, INC., priority 2015, dated 2019).

Experiments:
[1] = test system: conjunctival CD4 T cells; test: Conjunctival T cell infiltration (CD4 immunohistochemistry), desiccating stress model; format: in vivo, mouse; details: topical 30 mg/mL, 60 μg per eye, 5 days DS
Protocol: Female C57BL/6 mice, aged 6 to 8 weeks, were subjected to DS for 5 days (DS5) as described previously (de Paiva et al., 2006b; Niederkorn et al., 2006). Topical bilateral treatment with 1 eye drop per eye (2 μL volume) or subcutaneous injection (4 μL volume), 2 times per day, was initiated on day 1 concurrently with DS and continued through day 4. Treatment with the compound of formula I or dexamethasone phosphate 0.1% was compared to correspondingly treated vehicle controls. Mice were randomized to receive one of the test articles. […] Treatment effects were assessed on corneal staining with Oregon Green Dextran (OGD); expression of inflammatory markers in ocular surface tissues by real time PCR; cell population analysis in draining cervical lymph nodes by FACS analysis; conjunctival T cell infiltration by immunohistochemistry.
For immunohistochemistry, the eyes and adnexa of 5 mice/group (n=5) were excised, embedded in optimal cutting temperature (OCT compound; VWR, Suwanee, Ga.), and flash frozen in liquid nitrogen. […] Positively stained cells were counted in the goblet cell rich area of the conjunctiva, over a length of at least 500 μm in the epithelium for a distance of 500 μm using image-analysis software (NIS Elements Software, version 3.0, BR, Nikon). […]

[2] = target: T1, α4β1-VCAM-1 (Homo sapiens, UniProt P05556+P13612); test: VCAM cell adhesion assay, Jurkat J6 cells; format: cell-based; details: J6 cells to VCAM-1; read-out: Inhibition of cell adhesion (IC50)
T1 construct: characterized in human J6 cells which express VLA-4; endogenous in cells; host or cells: Jurkat J6 cells (human lymphoblast cell line)
Protocol: Jurkat J6 cells (human lymphoblast cell line) were grown as a suspension culture in RPMI 1640 supplemented with FCS (10%) and glutamine (2 mM). RPMI8866 cells (human B lymphoid cell line) were grown as a suspension culture in RPMI 1640 supplemented with FCS (10%) and glutamine (2 mM). RBL-2H3 cells (rat basophilic cell line) were cultured in Eagle's MEM plus Earles salts supplemented with 2 mM L-glutamine, 1 mM sodium pyruvate, 1× non-essential amino acids, 1 mM Na pyruvate 10% heat inactivated foetal calf serum.
Polystyrene 96-well microtitre plates were coated with IgG at a concentration of 0.05 mg/mL in bicarbonate buffer for 2 hours at 37° C. The solution was aspirated and the plates washed twice with PBS. The plates were then incubated overnight at 4° C. with a 1:4000 dilution of VCAM-1 of 3% BSA in PBS. Prior to use the VCAM-1 was aspirated and the plates washed twice with PBS.
J6 or RPMI cells (as required) were labelled with the fluorescent dye BCECF-AM (10 μM and 6×10^6 cells/mL) for 10 min at 37° C. before the excess was removed by centrifugation at 500 g for 5 min and the cells resuspended at a cell concentration of 1.2×10^7 cells/mL in HBSS. Equal volumes HBSS containing the compound of formula I (over concentration range 38.1 pM to 10 μM) and cells were added to the VCAM-1 coated plates. […] The plates were counted in a Wallac Viktor.

T1 sequence (P13612 34-1032): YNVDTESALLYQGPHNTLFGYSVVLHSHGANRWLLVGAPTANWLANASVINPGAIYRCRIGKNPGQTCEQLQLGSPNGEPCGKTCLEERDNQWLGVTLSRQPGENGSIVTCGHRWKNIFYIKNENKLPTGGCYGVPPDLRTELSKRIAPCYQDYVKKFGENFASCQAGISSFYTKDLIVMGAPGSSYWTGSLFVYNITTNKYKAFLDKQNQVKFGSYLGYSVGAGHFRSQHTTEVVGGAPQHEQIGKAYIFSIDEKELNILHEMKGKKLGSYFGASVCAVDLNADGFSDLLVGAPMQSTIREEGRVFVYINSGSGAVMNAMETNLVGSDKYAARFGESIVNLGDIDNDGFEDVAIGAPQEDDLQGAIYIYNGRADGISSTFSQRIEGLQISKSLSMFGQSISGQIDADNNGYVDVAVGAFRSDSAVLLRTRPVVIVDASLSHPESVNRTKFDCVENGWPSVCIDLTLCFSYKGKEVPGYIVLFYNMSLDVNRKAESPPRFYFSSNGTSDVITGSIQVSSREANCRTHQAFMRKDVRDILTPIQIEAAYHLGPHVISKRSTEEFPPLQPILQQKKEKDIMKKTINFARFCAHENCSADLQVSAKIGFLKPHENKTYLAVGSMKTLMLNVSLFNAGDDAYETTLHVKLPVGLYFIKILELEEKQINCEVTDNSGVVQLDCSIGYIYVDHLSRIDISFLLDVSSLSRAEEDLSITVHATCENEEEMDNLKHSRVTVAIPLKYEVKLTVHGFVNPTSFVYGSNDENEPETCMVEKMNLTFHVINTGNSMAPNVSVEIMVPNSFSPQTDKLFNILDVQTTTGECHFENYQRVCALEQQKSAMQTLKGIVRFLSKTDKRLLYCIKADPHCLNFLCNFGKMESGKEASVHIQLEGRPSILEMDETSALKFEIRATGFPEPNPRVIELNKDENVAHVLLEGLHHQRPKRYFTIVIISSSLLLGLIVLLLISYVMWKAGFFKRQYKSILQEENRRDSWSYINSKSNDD
T1 sequence (P05556 21-798): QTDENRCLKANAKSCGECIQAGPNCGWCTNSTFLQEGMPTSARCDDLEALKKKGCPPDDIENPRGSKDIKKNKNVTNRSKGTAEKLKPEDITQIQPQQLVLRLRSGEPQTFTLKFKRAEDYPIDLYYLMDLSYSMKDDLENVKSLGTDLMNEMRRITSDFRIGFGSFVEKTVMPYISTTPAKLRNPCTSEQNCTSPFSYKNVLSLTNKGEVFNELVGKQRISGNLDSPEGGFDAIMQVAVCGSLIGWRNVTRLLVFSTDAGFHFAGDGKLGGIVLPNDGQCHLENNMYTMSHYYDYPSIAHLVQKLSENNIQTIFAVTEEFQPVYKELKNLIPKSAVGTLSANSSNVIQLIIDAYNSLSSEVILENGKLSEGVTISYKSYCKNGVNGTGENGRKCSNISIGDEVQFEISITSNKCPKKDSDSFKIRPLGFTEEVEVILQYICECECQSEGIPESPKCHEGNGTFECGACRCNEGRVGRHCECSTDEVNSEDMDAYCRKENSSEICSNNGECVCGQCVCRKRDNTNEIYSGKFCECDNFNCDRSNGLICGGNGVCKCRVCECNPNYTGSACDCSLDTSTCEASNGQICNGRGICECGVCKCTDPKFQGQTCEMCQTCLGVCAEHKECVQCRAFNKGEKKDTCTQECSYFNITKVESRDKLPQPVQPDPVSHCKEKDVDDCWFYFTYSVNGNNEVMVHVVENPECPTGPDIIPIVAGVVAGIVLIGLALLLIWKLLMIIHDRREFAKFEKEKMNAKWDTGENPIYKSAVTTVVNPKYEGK

Cc1ccccc1OCC(=O)N[C@@H](CC(C)C)C(=O)N[C@@H](Cc1ccc(OC(=O)N2CCC(C(N)=O)CC2)cc1)C(=O)O [GW559090, (2S)-3-[4-({[4-(Aminocarbonyl)-1-piperidinyl]carbonyl}oxy)phenyl]-2-[((2S)-4-methyl-2-{[2-(2-methylphenoxy)acetyl]amino}pentanoyl)amino]propanoic acid]
Conjunctival T cell infiltration (cell density) [1]: decreases | IC50 [2]: 7.72 nM
